Laboratory results taken from ChEMBL document CHEMBL1944544, “Synthesis and immunological evaluation of the 4-β-glucoside of HMBPP” (Bioorg Med Chem Lett, 2012).
pEC50: −log10 of the molar value. The source made the active and inactive calls. The calls are words filed in the database; no cut-off is given here.

System: T-cell
Assay: Immunostimulatory activity in human Gamma delta T cells expressing Vgamma2Vdelta2T assessed as proliferation up to 300 uM after 16 to 24 hrs by [3H]thymidine incorporation assay
Type: functional, cell-based
Conditions: not given

| Structure (SMILES) | Activity |
| --- | --- |
| C/C(=C\CO)CO[C@@H]1O[C@H](CO)[C@@H](O)[C@H](O)[C@H]1O | inactive |
| C/C(=C\CO[C@@H]1O[C@H](CO)[C@@H](O)[C@H](O)[C@H]1O)CO | inactive |

System: not listed separately
Assay: Immunostimulatory activity in human Gamma delta T cells expressing Vgamma2Vdelta2T assessed as proliferation after 16 to 24 hrs by [3H]thymidine incorporation assay
Type: functional, cell-based
Conditions: T-cell

| Structure (SMILES) | pEC50 |
| --- | --- |
| CC(=O)OC[C@H]1O[C@@H](OC/C(C)=C/COP(=O)(O)OP(=O)(O)O)[C@H](OC(C)=O)[C@@H](OC(C)=O)[C@@H]1OC(C)=O | 6.44 |
| C/C(=C\COP(=O)(O)OP(=O)(O)O)COC(=O)c1ccc(C(=O)c2ccccc2)cc1 | 10.10 |
| C/C(=C\COP(=O)(O)OP(=O)(O)O)COCc1cccc(C(=O)c2ccccc2)c1 | 8.74 |
| C/C(=C\COP(=O)(O)OP(=O)(O)O)COC(=O)c1cccc(C(=O)c2ccccc2)c1 | 10.10 |
| C/C(=C\COP(=O)(O)OP(=O)(O)O)COCc1ccc(C(=O)c2ccccc2)cc1 | 8.74 |
| C/C(=C\COP(=O)(O)OP(=O)(O)O)CO[C@@H]1O[C@H](CO)[C@@H](O)[C@H](O)[C@H]1O | 7.11 |

System: T-cell
Assay: Ratio of compound EC50 to isopentenyl pyrophosphate EC50 for immunostimulatory activity in human Gamma delta T cells expressing Vgamma2Vdelta2T
Type: functional
Conditions: not given

| Structure (SMILES) | Ratio EC50 |
| --- | --- |
| C/C(=C\COP(=O)(O)OP(=O)(O)O)CO[C@@H]1O[C@H](CO)[C@@H](O)[C@H](O)[C@H]1O | 12 |
